This is an account of results in patent publication US20150126467A1, “USE OF ALGINATE OLIGOMERS TO ENHANCE THE EFFECTS OF ANTIFUNGAL AGENTS” (AlgiIPharma AS, priority 2011, published 2015).

The assay deals with Cryptococcus neoformans CCUG 23451. Description: Robotic MIC assay, Cryptococcus neoformans (Example 6). It is filed as cell-based. The note with it: for MIC: Cryptococcus neoformans, read-out: Minimum Inhibitory Concentration (MIC); for effect on MIC when OligoG is added to the medium: media: RPMI with 2% glucose. The procedure:
Cryptococcus sp. was grown at 30° C. for 96 h on YM-agar. Spores and aerial mycelium was cut out from the agar, suspended in 1 ml YM-broth and dispersed with glass beads (1 mm) in a mini bead beater for 2 min. The suspension was added glycerol to 10% and frozen at −80° C. Each batch of frozen stock culture was then characterized in separate growth experiments using Mueller-Hinton and RPMI to determine the minimum amount of inoculum giving satisfactory growth after 48 h under the conditions relevant for the MIC assay. This inoculum procedure is used in order to reduce day to day variation in bioassays.
Robotic minimum inhibitory concentration (MIC) assay was performed as follows. OligoG CF-5/20 was dissolved in medium (Mueller-Hinton, RPMI with 2% glucose, Sabouraud or YM) to 1.25 times of the desired assay concentrations (2, 6 and 10%). […].
Two-fold serial dilutions of antifungal agents were made in medium with different concentrations of OligoG CF-5/20, and the solutions were placed in four parallel wells in Nunc 384-well micro plates (30 μl per well in Nunc 242757 microplates). A group of 8 wells with no addition of antifungal agents for each OligoG CF-5/20 concentration was included on each micro plate as growth reference. Each well in the 384-well assay plates was added 7.5 μl of the medium innoculated with frozen stock culture of the relevant strains.
The microplates were placed in plastic bags and incubated without shaking at 34° C. The optical density at 600 nm in the microwells was measured after certain time points from 24 h to 96 h of incubation. […]

Setting [1] is: CCUG23451, 72 h, RPMI 2% GLU, 0% OligoG, 72 hours.
The mark [2] stands for this setting: CCUG23451, 72 h, RPMI 2% GLU, 2% OligoG, 72 hours.
The mark [3] stands for this setting: CCUG23451, 72 h, RPMI 2% GLU, 6% OligoG, 72 hours.
The mark [4] stands for this setting: CCUG23451, 72 h, Sabouraud, 0% OligoG, 72 hours.
[5] abbreviates: CCUG23451, 72 h, Sabouraud, 2% OligoG, 72 hours.
Where [6] appears, read: CCUG23451, 72 h, Sabouraud, 6% OligoG, 72 hours.
The mark [7] stands for this setting: CCUG23451, 72 h, YM, 0% OligoG, 72 hours.
The mark [8] stands for this setting: CCUG23451, 72 h, YM, 2% OligoG, 72 hours.
[9] abbreviates: CCUG23451, 96 h, MH, 0% OligoG, 96 hours.
Setting [10] is: CCUG23451, 96 h, MH, 2% OligoG, 96 hours.
The mark [11] stands for this setting: CCUG23451, 96 h, RPMI 2% GLU, 0% OligoG, 96 hours.
Setting [12] is: CCUG23451, 96 h, RPMI 2% GLU, 2% OligoG, 96 hours.
Setting [13] is: CCUG23451, 96 h, RPMI 2% GLU, 6% OligoG, 96 hours.
[14] abbreviates: CCUG23451, 96 h, Sabouraud, 0% OligoG, 96 hours.
Where [15] appears, read: CCUG23451, 96 h, Sabouraud, 2% OligoG, 96 hours.
The mark [16] stands for this setting: CCUG23451, 96 h, Sabouraud, 6% OligoG, 96 hours.
Setting [17] is: CCUG23451, 96 h, YM, 0% OligoG, 96 hours.
[18] abbreviates: CCUG23451, 96 h, YM, 2% OligoG, 96 hours.

Molecules are shown by their SMILES. Values after ≈ are worked out from the molar mass of the structure shown. Read-outs that look alike come from different tables or passages of the source. Bounds are passed on as bounds.

Consider `Clc1ccc(COC(Cn2ccnc2)c2ccc(Cl)cc2Cl)c(Cl)c1` (stereo not drawn) [Miconazole, miconazole], for which the MIC was 4 mg/L (≈ 9.61 µM) under setting [1]; 2 mg/L (≈ 4.81 µM) under setting [2]; 0.5 mg/L (≈ 1.2 µM) under setting [3]; less than 0.0156 mg/L under setting [4]; 0.0625 mg/L (≈ 0.15 µM) under setting [5]; 0.00781 mg/L (≈ 0.0188 µM) under setting [6]. For the same compound, the MIC under setting [7] is 0.5 mg/L (≈ 1.2 µM); the MIC under setting [8] was determined as 0.5 mg/L (≈ 1.2 µM); the MIC under setting [9] was found to be 1 mg/L (≈ 2.4 µM); the MIC under setting [10] amounted to 0.125 mg/L (≈ 0.3 µM); the MIC under setting [11] turned out to be 4 mg/L (≈ 9.61 µM); the MIC under setting [12] is 2 mg/L (≈ 4.81 µM). Moreover, the MIC reads like this: under setting [13], 1 mg/L (≈ 2.4 µM); under setting [14], 0.0625 mg/L (≈ 0.15 µM); under setting [15], 0.25 mg/L (≈ 0.601 µM); under setting [16], 0.5 mg/L (≈ 1.2 µM); under setting [17], 0.5 mg/L (≈ 1.2 µM); under setting [18], 1 mg/L (≈ 2.4 µM). The “effect on MIC when OligoG is added to the medium” value (MH, Sabouraud, YM) was “reduction in MIC in RPMI with glucose and in MH medium”.

`C[C@@H]1[C@H](O)[C@@H](C)/C=C/C=C/C=C/C=C/C=C/C=C/C=C/[C@H](O[C@@H]2O[C@H](C)[C@@H](O)[C@H](N)[C@@H]2O)C[C@@H]2O[C@](O)(C[C@@H](O)C[C@@H](O)[C@H](O)CC[C@@H](O)C[C@@H](O)CC(=O)O[C@H]1C)C[C@H](O)[C@H]2C(=O)O` [Amphotericin B, amphotericin B]: the MIC by setting is: under setting [1], more than 1.5 mg/L; under setting [2], 1.5 mg/L (≈ 1.62 µM); under setting [3], 0.75 mg/L (≈ 0.812 µM); under setting [4], 0.188 mg/L (≈ 0.203 µM); under setting [5], 0.0938 mg/L (≈ 0.101 µM); under setting [6], 0.0117 mg/L (≈ 0.0127 µM). Further, the MIC is, setting by setting: under setting [7], more than 1.5 mg/L; under setting [8], 1.5 mg/L (≈ 1.62 µM); under setting [9], 1.5 mg/L (≈ 1.62 µM); under setting [10], 0.188 mg/L (≈ 0.203 µM); under setting [11], more than 1.5 mg/L; under setting [12], more than 1.5 mg/L. Also, the MIC under setting [13] is 1.5 mg/L (≈ 1.62 µM); the MIC (CCUG23451, 96 h, RPMI 2% GLU, 10% OligoG, 96 hours) is 0.75 mg/L (≈ 0.812 µM); the MIC under setting [14] amounted to 0.375 mg/L (≈ 0.406 µM); the MIC under setting [15] is 0.0938 mg/L (≈ 0.101 µM); the MIC under setting [16] turned out to be 0.0234 mg/L (≈ 0.0253 µM); the MIC under setting [17] was more than 1.5 mg/L. Further, the MIC under setting [18] was found to be 1.5 mg/L (≈ 1.62 µM). Where the note is “MH, Sabouraud, YM”, the “effect on MIC when OligoG is added to the medium” value was “reduction in MIC in all media tested”.
